Measured values from US10137112B2, “Methods for treating hyperuricemia in patients with gout using halofenate or halofenic acid and a second urate-lowering agent” (CymaBay Therapeutics, Inc., priority 2011, dated 2018).
Values joined by “and” are separate entries in the source; they are usually repeats but may differ in a detail not shown here. Identical values can stand only once.

What was measured:
serum uric acid (sUA) [1] = system: serum uric acid (sUA)
Protocol: A randomized, double-blind, placebo-controlled study to evaluate the safety and efficacy of daily oral doses of between 400 to 600 mg of arhalofenate (i.e., (−)-halofenate) in combination with 300 mg oral doses of allopurinol was conducted in gout patients with inadequate hypouricemic (uric acid lowering) response to allopurinol alone.
Patients who met the final eligibility criteria were randomized to each of 3 study arms in the following manner (1:1:1):
Arhalofenate 400 mg (plus allopurinol 300 mg)
Arhalofenate 600 mg (plus allopurinol 300 mg)
Placebo (plus allopurinol 300 mg)
The serum uric acid (sUA) levels were assessed at Day 1, prior to giving blinded study medication, and at Visits Week 2, 3, and 4.
Patients in all treatment groups also took allopurinol 300 mg once daily orally starting at Week −3 during the run-in and continuing through Week 4.
The randomized treatment regimens were as follows (Day 1 through Week 4):
Treatment Group #1: Arhalofenate 400 mg (plus allopurinol)
Treatment Group #2: Arhalofenate 600 mg (plus allopurinol)
Treatment Group #3: Placebo (plus allopurinol)
The effects of each of the three treatment groups were assessed as the change in sUA from baseline to the end of the treatment period for the following endpoints:
Percent change in sUA from baseline at Week 4 of treatment
The proportion of patients achieving a sUA<6 mg/dL at week 4 of treatment
The proportion of patients achieving a sUA<5 mg/dL at week 4 of treatment
The proportion of patients achieving a sUA<4 mg/dL at week 4 of treatment

serum uric acid = conditions: monotherapy at 40, 80, 120, 160 and 240 mg/day; cited from earlier work
serum uric acid (sUA) [2] = test: Example 2 clinical trial: arhalofenate 400 mg increasing to 600 mg in combination with febuxostat 80 mg in gout patients with hyperuricemia, serum uric acid; type: in vivo, human; conditions: Day 8, after 1 week febuxostat 80 mg daily
Protocol: This study evaluated the efficacy, safety and tolerability of arhalofenate at 400 mg increasing to 600 mg daily orally in combination with febuxostat 80 mg daily orally in gout patients (per criteria of the American Rheumatism Association) with hyperuricemia.
In addition to colchicine 0.6 mg daily for flare prophylaxis, all patients received febuxostat and arhalofenate in the following order during the Treatment Phase: • Days 1 through 7: febuxostat 80 mg orally once daily (febuxostat only period) • Days 8 through 21: febuxostat 80 mg plus arhalofenate 400 mg orally once daily (febuxostat plus arhalofenate 400 mg period) • Days 22 through 35: febuxostat 80 mg plus arhalofenate 600 mg orally once daily (febuxostat plus arhalofenate 600 mg period)
The sUA levels were assessed before the start of each dosing period (Day 1, Day 8, Day 22) and at the end of the Treatment Phase (Day 36). Serum urate levels were also measured on the last day of each dosing period (Day 7, Day 21, and Day 35) at 4 different time points; pre-dose (fasting), 2 hours post-dose, 6 hours post-dose, and 10 hours post-dose.
Dose/Route/Regimen • Colchicine: 0.6 mg/oral/daily from Day −16 through Day 49 • Febuxostat: 80 mg/oral/daily from Day 1 through Day 35 • Arhalofenate: 400 mg/oral daily from Day 8 through Day 21; 600 mg/oral/daily from Day 22 through Day 35
Duration of Treatment • Phase 1: Screening Phase: 1 to 4 weeks • Phase 2: Run-in/Stabilization Phase: ≥2 weeks • Phase 3: Treatment Phase: 5 weeks • Phase 4: Follow-up Phase: 2 weeks

[3] = placebo + allopurinol 300 mg once daily oral, Week 4 (LOCF), N = 31
[4] = placebo + allopurinol 300 mg once daily oral, Week 4, N = 31
[5] = placebo + allopurinol 300 mg, Week 4

SMILES: O=c1[nH]cnc2[nH]ncc12 [Placebo + Allopurinol, 1,5-dihydro-4H-pyrazolo [3,4-d]pyrimidin-4-one]
- % Change from Baseline in Uric Acid, Mean (serum uric acid (sUA) [1]; [3]): −9.5%
- % Change from Baseline in Uric Acid, Median (serum uric acid (sUA) [1]; [3]): −8.7%
- Uric Acid at End of Treatment (LOCF), Mean (serum uric acid (sUA) [1]; [4]): 6.3 mg/dL
- Uric Acid at End of Treatment (LOCF), Median (serum uric acid (sUA) [1]; [4]): 6.2 mg/dL
- patients with sUA<4.0 mg/dL by End of Treatment (serum uric acid (sUA) [1]; [5]): 1 patients
- patients with sUA<5.0 mg/dL by End of Treatment (serum uric acid (sUA) [1]; [5]): 4 patients
- patients with sUA<6.0 mg/dL by End of Treatment (serum uric acid (sUA) [1]; [5]): 11 patients

SMILES: O=c1[nH]cnc2c(CN3C[C@H](CO)[C@@H](O)C3)c[nH]c12 [Ulodesine, 7-(((3R,4R)-3-hydroxy-4-(hydroxymethyl)pyrrolidin-1-yl)methyl)-3H-pyrrolo[3,2-d]pyrimidin-4(5H)-one]
- effect on serum uric acid in gout patients (serum uric acid): rapidly and significantly reduced serum uric acid

SMILES: Cc1nc(-c2ccc(OCC(C)C)c(C#N)c2)sc1C(=O)O [febuxostat, 2-(3-cyano-4-isobutoxyphenyl)-4-methyl-1,3-thiazole-5-carboxylic acid]
- mean absolute reduction in sUA from Day 1 (serum uric acid (sUA) [2]): -4.3 mg/dL
- mean percent reduction in sUA from Day 1 (serum uric acid (sUA) [2]): −47.8%
- Patients reached target: No, sUA < 3.0 mg/dL (serum uric acid (sUA) [2]; 11 patients): 11 patients
- Patients reached target: No, sUA < 4.0 mg/dL (serum uric acid (sUA) [2]; 11 patients): 10 patients
- Patients reached target: No, sUA < 5.0 mg/dL (serum uric acid (sUA) [2]; 11 patients): 5 patients
- Patients reached target: No, sUA < 6.0 mg/dL (serum uric acid (sUA) [2]; 11 patients): 0 patients
- Patients reached target: Yes, sUA < 3.0 mg/dL (serum uric acid (sUA) [2]; 11 patients): 0 patients
- Patients reached target: Yes, sUA < 4.0 mg/dL (serum uric acid (sUA) [2]; 11 patients): 1 patients
- Patients reached target: Yes, sUA < 5.0 mg/dL (serum uric acid (sUA) [2]; 11 patients): 6 patients
- Patients reached target: Yes, sUA < 6.0 mg/dL (serum uric acid (sUA) [2]; 11 patients): 11 patients
- Proportion of patients reached target, sUA < 3.0 mg/dL (serum uric acid (sUA) [2]; 11 patients): 0.00%
- Proportion of patients reached target, sUA < 4.0 mg/dL (serum uric acid (sUA) [2]; 11 patients): 9% and 9.09%
- Proportion of patients reached target, sUA < 5.0 mg/dL (serum uric acid (sUA) [2]; 11 patients): 55% and 54.55%
- Proportion of patients reached target, sUA < 6.0 mg/dL (serum uric acid (sUA) [2]; 11 patients): 100%
